Laboratory results as given in DBAASP.
In brackets after ≈: the same amount, converted by molar mass. Blank lines part the entries; values can stand above or below the compound they belong to.

Columns and labels:
Assay in all cases: ≥ marks a high value that may be exact or a test limit, other limits are often not marked, values filed in µg/mL are converted to µM
Acinetobacter baumannii = test system: Acinetobacter baumannii
Bacillus subtilis 168 = test system: Bacillus subtilis 168
[1] = test system: Escherichia coli BNCC 133264
Escherichia coli K-12 = test system: Escherichia coli K-12
Escherichia coli = test system: Escherichia coli
Klebsiella pneumoniae = test system: Klebsiella pneumoniae
Listeria monocytogenes = test system: Listeria monocytogenes
[2] = test system: Pseudomonas aeruginosa BNCC 125486
[3] = test system: Pseudomonas aeruginosa PAO1
[4] = test system: Staphylococcus aureus BNCC 186335
[5] = test system: Staphylococcus aureus USA 300
Staphylococcus aureus = test system: Staphylococcus aureus
[6] = test system: Candida albicans ATCC 36232
[7] = test system: Escherichia coli ATCC 2592
[8] = test system: Micrococcus luteus ATCC 9341
[9] = test system: Proteus vulgaris ATCC 6380
[10] = test system: Pseudomonas aeruginosa ATCC 9027
[11] = test system: Staphylococcus aureus ATCC 6538
Candida glabrata 090902 = test system: Candida glabrata 090902
[12] = test system: Enterobacter cloacae CGMCC 1.57
[13] = test system: Enterococcus faecalis 981
Nocardia asteroides = test system: Nocardia asteroides
[14] = test system: Psychrobacter faecalis X29
[15] = test system: Staphylococcus aureus ATCC 25923
Escherichia coli W160-37 = test system: Escherichia coli W160-37
[16] = test system: Staphylococcus aureus A170
[17] = test system: Staphylococcus epidermidis
[18] = test system: Bacillus subtilis KCTC 1021
Candida albicans = test system: Candida albicans
[19] = test system: Klebsiella pneumoniae ATCC 10031
[20] = test system: Micrococcus luteus ATCC 4698
[21] = test system: Proteus mirabilis ATCC 25933
Pseudomonas putida = test system: Pseudomonas putida
Saccharomyces cerevisiae = test system: Saccharomyces cerevisiae
[22] = test system: Salmonella enterica subsp. enterica serovar Typhimurium ATCC 14028
Serratia marcescens = test system: Serratia marcescens
[23] = test system: Shigella dysenteriae ATCC 9752
[24] = test system: Staphylococcus epidermidis ATCC 12228
[25] = test system: Candida albicans ATCC 90028
[26] = test system: Candida parapsilosis ATCC 22019
[27] = test system: Enterobacter cloacae ATCC 13047
Escherichia coli 117 = test system: Escherichia coli 117
[28] = test system: Klebsiella pneumoniae ATCC 700603
[29] = test system: Pseudomonas aeruginosa ATCC 27853
[30] = test system: Pseudomonas aeruginosa CMCCB 1010
Pseudomonas aeruginosa = test system: Pseudomonas aeruginosa
Shigella dysenteriae = test system: Shigella dysenteriae
Staphylococcus aureus 10 = test system: Staphylococcus aureus 10
Staphylococcus aureus 37 = test system: Staphylococcus aureus 37

- MIC (Acinetobacter baumannii): ≥ 43.4 µM
- MIC (Bacillus subtilis 168): 6.25 µM (≈ 9.21 µg/mL)
- MIC [1]: ≥ 43.4 µM
- MIC (Escherichia coli K-12): 25 µM (≈ 36.8 µg/mL)
- MIC (Escherichia coli): 21.7 µM (≈ 32 µg/mL)
- MIC (Klebsiella pneumoniae): > 43.4 µM
- MIC (Listeria monocytogenes): 1.36 µM (≈ 2 µg/mL)
- MIC [2]: ≥ 86.8 µM
- MIC [3]: > 100 µM
- MIC [4]: 1.36 µM (≈ 2 µg/mL)
- MIC [5]: 3.12 µM (≈ 4.6 µg/mL)
- MIC (Staphylococcus aureus): 1.36 µM (≈ 2 µg/mL)
Structure (SMILES): CC[C@H](C)[C@H](NC(=O)[C@H](CCCCN)NC(=O)[C@@H]1CCCN1C(=O)[C@@H](NC(=O)[C@H](CC(C)C)NC(=O)[C@H](CCCCN)NC(=O)[C@H](CC(C)C)NC(=O)[C@@H](NC(=O)[C@H](CO)NC(=O)CNC(=O)[C@H](Cc1ccccc1)NC(=O)[C@@H](N)Cc1ccccc1)C(C)C)[C@@H](C)CC)C(=O)N[C@@H](CC(C)C)C(N)=O [FFGSVLKLIPKIL]

- MIC [6]: 28.1 µM (≈ 50 µg/mL)
- MIC [7]: 28.1 µM (≈ 50 µg/mL)
- MIC [8]: 14 µM (≈ 25 µg/mL)
- MIC [9]: ≥ 56.1 µM
- MIC [10]: 28.1 µM (≈ 50 µg/mL)
- MIC [11]: 56.1 µM (≈ 99.9 µg/mL)
- MIC (Staphylococcus aureus): > 56.1 µM
Structure (SMILES): CC[C@H](C)[C@H](NC(=O)[C@H](CCCCN)NC(=O)[C@@H]1CCCN1C(=O)[C@H](CC(C)C)NC(=O)[C@H](Cc1ccccc1)NC(=O)[C@H](CC(N)=O)NC(=O)[C@H](C)N)C(=O)N[C@@H](Cc1ccccc1)C(=O)N[C@@H](CS)C(=O)N[C@@H](CCCCN)C(=O)N[C@H](C(=O)N[C@H](C(=O)N[C@@H](CCCN=C(N)N)C(=O)N[C@@H](CCCCN)C(=O)N[C@@H](CS)C(N)=O)[C@@H](C)O)[C@@H](C)CC [ANFLPKIFCKITRKC]

- MIC (Candida glabrata 090902): ≥ 100 µM
- MIC [12]: ≥ 400 µM
- MIC [13]: ≥ 50 µM
- MIC (Nocardia asteroides): 25 µM (≈ 33 µg/mL)
- MIC [14]: ≥ 200 µM
- MIC [15]: 25 µM (≈ 33 µg/mL)
Structure (SMILES): CC[C@H](C)[C@H](NC(=O)[C@H](CC(C)C)NC(=O)CNC(=O)[C@H](CO)NC(=O)[C@@H](NC(=O)[C@@H](N)Cc1ccccc1)[C@@H](C)CC)C(=O)NCC(=O)NCC(=O)N[C@@H](CC(C)C)C(=O)N[C@@H](CCSC)C(=O)N[C@@H](CCCCN)C(=O)N[C@@H](C)C(=O)N[C@@H](CC(C)C)C(N)=O [FISGLIGGLMKAL]

- MIC (Escherichia coli W160-37): 22 µM (≈ 39.3 µg/mL)
- MIC (Staphylococcus aureus): 17 µM (≈ 30.4 µg/mL)
Structure (SMILES): CC[C@H](C)[C@H](NC(=O)[C@H](CCCCN)NC(=O)[C@H](CCCCN)NC(=O)[C@H](Cc1c[nH]c2ccccc12)NC(=O)[C@H](CCCCN)NC(=O)[C@H](CO)NC(=O)[C@H](CC(C)C)NC(=O)[C@H](Cc1ccccc1)NC(=O)[C@@H](NC(=O)[C@H](CCCCN)NC(=O)[C@H](CC(C)C)NC(=O)[C@H](CC(C)C)NC(=O)[C@H](CCCCN)NC(=O)[C@@H]1CCCN1)[C@@H](C)O)C(=O)NCC(=O)O [PKLLKTFLSKWKKIG]

- MIC [16]: 7.26 µM (≈ 10 µg/mL)
- MIC [17]: 14.5 µM (≈ 20 µg/mL)
Structure (SMILES): CC[C@H](C)[C@H](NC(=O)[C@@H]1CCCN1C(=O)[C@H](CC(C)C)NC(=O)[C@@H](N)CC(C)C)C(=O)N[C@H](C(=O)NCC(=O)N[C@@H](CC(N)=O)C(=O)N[C@@H](CC(C)C)C(=O)N[C@@H](CC(C)C)C(=O)N[C@@H](CCCCN)C(=O)N[C@@H](C)C(=O)N[C@@H](CC(C)C)C(=O)N[C@@H](CC(C)C)C(=O)O)C(C)C [LLPIVGNLLKALL]

- MIC [18]: 3.02 µM (≈ 9.99 µg/mL)
- MIC (Candida albicans): > 60.4 µM
- MIC (Escherichia coli): 22.7 µM (≈ 75 µg/mL)
- MIC [19]: 7.56 µM (≈ 25 µg/mL)
- MIC [20]: 0.755 µM (≈ 2.5 µg/mL)
- MIC [21]: ≥ 60.4 µM
- MIC [10]: 15.1 µM (≈ 50 µg/mL)
- MIC (Pseudomonas putida): 15.1 µM (≈ 50 µg/mL)
- MIC (Saccharomyces cerevisiae): ≥ 60.4 µM
- MIC [22]: 45.3 µM (≈ 150 µg/mL)
- MIC (Serratia marcescens): ≥ 60.4 µM
- MIC [23]: 7.56 µM (≈ 25 µg/mL)
- MIC [24]: 3.02 µM (≈ 9.99 µg/mL)
Structure (SMILES): CC[C@H](C)[C@H](NC(=O)CN)C(=O)N[C@@H](CCSC)C(=O)N[C@@H](CO)C(=O)N[C@H](C(=O)N[C@H](C(=O)N[C@@H](CCCCN)C(=O)N[C@@H](CC(=O)O)C(=O)N[C@H](C(=O)N[C@@H](C)C(=O)N[C@@H](CCCCN)C(=O)N[C@H](C(=O)N[C@@H](C)C(=O)N[C@@H](C)C(=O)N[C@@H](CCCCN)C(=O)N[C@@H](CCC(=O)O)C(=O)N[C@@H](C)C(=O)N[C@@H](C)C(=O)N[C@@H](CCCCN)C(=O)NCC(=O)N[C@@H](C)C(=O)N[C@@H](CC(C)C)C(=O)N[C@@H](CO)C(=O)N[C@H](C(=O)N[C@@H](CC(C)C)C(=O)N[C@@H](CO)C(=O)N[C@H]1CSSC[C@@H](C(=O)O)NC(=O)[C@H]([C@@H](C)O)NC(=O)[C@H](CCCCN)NC(=O)[C@H](C)NC(=O)[C@H](CC(C)C)NC(=O)[C@H](CCCCN)NC1=O)[C@@H](C)O)[C@@H](C)O)C(C)C)C(C)C)[C@@H](C)CC [GIMSIVKDVAKTAAKEAAKGALSTLSCKLAKTC]

- MIC [25]: 13.3 µM (≈ 20 µg/mL)
- MIC [26]: 13.3 µM (≈ 20 µg/mL)
- MIC [27]: 26.6 µM (≈ 40 µg/mL)
- MIC (Escherichia coli 117): ≥ 53.1 µM
- MIC [28]: 13.3 µM (≈ 20 µg/mL)
- MIC [29]: 6.64 µM (≈ 10 µg/mL)
- MIC [30]: 6.64 µM (≈ 10 µg/mL)
- MIC (Pseudomonas aeruginosa): 53.1 µM (≈ 80 µg/mL)
- MIC (Shigella dysenteriae): 6.64 µM (≈ 10 µg/mL)
- MIC (Staphylococcus aureus 10): 26.6 µM (≈ 40 µg/mL)
- MIC (Staphylococcus aureus 37): ≥ 53.1 µM
- MIC [15]: 53.1 µM (≈ 80 µg/mL)
Structure (SMILES): CC[C@H](C)[C@H](N)C(=O)N[C@@H](CC(N)=O)C(=O)N[C@@H](CC(C)C)C(=O)N[C@@H](CCCCN)C(=O)N[C@@H](C)C(=O)N[C@H](C(=O)N[C@@H](C)C(=O)N1CCC[C@H]1C(=O)N[C@@H](CC(C)C)C(=O)N[C@@H](C)C(=O)N[C@@H](CCCCN)C(=O)N[C@@H](CCCCN)C(=O)N[C@@H](CC(C)C)C(=O)N[C@@H](CC(C)C)C(=O)O)[C@@H](C)CC [INLKAIAPLAKKLL]
